From ChEMBL document CHEMBL3792297, “Studies on phenothiazines: New microtubule-interacting compounds with phenothiazine A-ring as potent antineoplastic agents” (Bioorg Med Chem, 2016)

Tests used:
786-0 = assay: Growth inhibition of human 786-0 cells at 10 uM after 48 hrs by SRB assay relative to control; type: functional; settings: 786-0, 48 h, read-out: GI
[1] = Growth inhibition of human HOP92 cells at 10 uM after 48 hrs by SRB assay relative to control; type: functional; settings: HOP-92, 48 h, read-out: GI
MDA-MB-468 = assay: Growth inhibition of human MDA-MB-468 cells at 10 uM after 48 hrs by SRB assay relative to control; type: functional; settings: MDA-MB-468, 48 h, read-out: GI
U-251 = assay: Growth inhibition of human U251 cells at 10 uM after 48 hrs by SRB assay relative to control; type: functional; settings: U-251, 48 h, read-out: GI
NCI-H460 = assay: Growth inhibition of human NCI-H460 cells at 10 uM after 48 hrs by SRB assay relative to control; type: functional; settings: NCI-H460, 48 h, read-out: GI
SN12C = assay: Growth inhibition of human SN12C cells at 10 uM after 48 hrs by SRB assay relative to control; type: functional; settings: read-out: GI
Malme-3M = assay: Growth inhibition of human MALME-3M cells at 10 uM after 48 hrs by SRB assay relative to control; type: functional; settings: read-out: GI
[2] = Growth inhibition of human SNB19 cells at 10 uM after 48 hrs by SRB assay relative to control; type: functional; settings: SNB-19, 48 h, read-out: GI
SK-MEL-2 = assay: Growth inhibition of human SK-MEL-2 cells at 10 uM after 48 hrs by SRB assay relative to control; type: functional; settings: SK-MEL-2, 48 h, read-out: GI
A549 = assay: Growth inhibition of human A549 cells at 10 uM after 48 hrs by SRB assay relative to control; type: functional; settings: A549, 48 h, read-out: GI
[3] = Growth inhibition of human UO31 cells at 10 uM after 48 hrs by SRB assay relative to control; type: functional; settings: UO-31, 48 h, read-out: GI
[4] = Growth inhibition of human HCC2998 cells at 10 uM after 48 hrs by SRB assay relative to control; type: functional; settings: HCC 2998, 48 h, read-out: GI
[5] = Growth inhibition of human TK10 cells at 10 uM after 48 hrs by SRB assay relative to control; type: functional; settings: TK-10, 48 h, read-out: GI
[6] = Growth inhibition of human HCT116 cells at 10 uM after 48 hrs by SRB assay relative to control; type: functional; settings: HCT-116, 48 h, read-out: GI
[7] = Growth inhibition of human IGROV1 cells at 10 uM after 48 hrs by SRB assay relative to control; type: functional; settings: IGROV-1, 48 h, read-out: GI
[8] = Growth inhibition of human DU145 cells at 10 uM after 48 hrs by SRB assay relative to control; type: functional; settings: DU-145, 48 h, read-out: GI
HT-29 = assay: Growth inhibition of human HT-29 cells at 10 uM after 48 hrs by SRB assay relative to control; type: functional; settings: HT-29, 48 h, read-out: GI
[9] = Growth inhibition of human RXF393 cells at 10 uM after 48 hrs by SRB assay relative to control; type: functional; settings: RXF 393, 48 h, read-out: GI
MCF7 = assay: Growth inhibition of human MCF7 cells at 10 uM after 48 hrs by SRB assay relative to control; type: functional; settings: MCF7, 48 h, read-out: GI
A498 = assay: Growth inhibition of human A498 cells at 10 uM after 48 hrs by SRB assay relative to control; type: functional; settings: A498, 48 h, read-out: GI
[10] = Growth inhibition of human Caki1 cells at 10 uM after 48 hrs by SRB assay relative to control; type: functional; settings: CAKI-1, 48 h, read-out: GI
[11] = Growth inhibition of human HL-60(TB) cells at 10 uM after 48 hrs by SRB assay relative to control; type: functional; settings: HL-60, 48 h, read-out: GI
NCI-H522 = assay: Growth inhibition of human NCI-H522 cells at 10 uM after 48 hrs by SRB assay relative to control; type: functional; settings: NCI-H522, 48 h, read-out: GI
MDA-MB-435 = assay: Growth inhibition of human MDA-MB-435 cells at 10 uM after 48 hrs by SRB assay relative to control; type: functional; settings: MDA-MB-435, 48 h, read-out: GI
[12] = Growth inhibition of human HOP62 cells at 10 uM after 48 hrs by SRB assay relative to control; type: functional; settings: HOP-62, 48 h, read-out: GI
[13] = Growth inhibition of human LOXIMVI cells at 10 uM after 48 hrs by SRB assay relative to control; type: functional; settings: LOX IMVI, read-out: GI
SK-MEL-28 = assay: Growth inhibition of human SK-MEL-28 cells at 10 uM after 48 hrs by SRB assay relative to control; type: functional; settings: SK-MEL-28, 48 h, read-out: GI
NCI-H322M = assay: Growth inhibition of human NCI-H322M cells at 10 uM after 48 hrs by SRB assay relative to control; type: functional; settings: read-out: GI
[14] = Growth inhibition of human UACC257 cells at 10 uM after 48 hrs by SRB assay relative to control; type: functional; settings: UACC-257, 48 h, read-out: GI
[15] = Growth inhibition of human RPMI8226 cells at 10 uM after 48 hrs by SRB assay relative to control; type: functional; settings: RPMI-8226, 48 h, read-out: GI
[16] = Growth inhibition of human SW620 cells at 10 uM after 48 hrs by SRB assay relative to control; type: functional; settings: SW-620, 48 h, read-out: GI
[17] = Growth inhibition of human COLO205 cells at 10 uM after 48 hrs by SRB assay relative to control; type: functional; settings: COLO 205, 48 h, read-out: GI
[18] = Growth inhibition of human OVCAR5 cells at 10 uM after 48 hrs by SRB assay relative to control; type: functional; settings: OVCAR-5, 48 h, read-out: GI
ACHN = assay: Growth inhibition of human ACHN cells at 10 uM after 48 hrs by SRB assay relative to control; type: functional; settings: read-out: GI
K562 = assay: Growth inhibition of human K562 cells at 10 uM after 48 hrs by SRB assay relative to control; type: functional; settings: K562, 48 h, read-out: GI
MDA-MB-231 = assay: Growth inhibition of human MDA-MB-231 cells at 10 uM after 48 hrs by SRB assay relative to control; type: functional; settings: MDA-MB-231, 48 h, read-out: GI
Ovis aries = species: Ovis aries; assay: Inhibition of sheep brain tubulin polymerization at 100 uM by DAPI staining-based fluorimetric method
M14 = assay: Growth inhibition of human M14 cells at 10 uM after 48 hrs by SRB assay relative to control; type: functional; settings: M14, 48 h, read-out: GI
T47D = assay: Growth inhibition of human T47D cells at 10 uM after 48 hrs by SRB assay relative to control; type: functional; settings: read-out: GI

SMILES	inhibition of growth at 10 µM (786-0) [%]	inhibition of growth at 10 µM [1] [%]	inhibition of growth at 10 µM (MDA-MB-468) [%]	inhibition of growth at 10 µM (U-251) [%]	inhibition of growth at 10 µM (NCI-H460) [%]	inhibition of growth at 10 µM (SN12C) [%]	inhibition of growth at 10 µM (Malme-3M) [%]	inhibition of growth at 10 µM [2] [%]	inhibition of growth at 10 µM (SK-MEL-2) [%]	inhibition of growth at 10 µM (A549) [%]	inhibition of growth at 10 µM [3] [%]	inhibition of growth at 10 µM [4] [%]	inhibition of growth at 10 µM [5] [%]	inhibition of growth at 10 µM [6] [%]	inhibition of growth at 10 µM [7] [%]	inhibition of growth at 10 µM [8] [%]	inhibition of growth at 10 µM (HT-29) [%]	inhibition of growth at 10 µM [9] [%]	inhibition of growth at 10 µM (MCF7) [%]	inhibition of growth at 10 µM [10] [%]	other results
COc1ccc(C(=O)c2ccc3c(c2)Sc2ccccc2N3C)cc1F	16	17	55	18	13	13	24	15	17	44	2	5	8	17	7	0	30	11	37	22	inhibition of growth at 10 µM (A498): 45%; inhibition of growth at 10 µM [11]: 0%; inhibition of growth at 10 µM (NCI-H522): 22%; inhibition of growth at 10 µM (MDA-MB-435): 87%; inhibition of growth at 10 µM [12]: 17%; inhibition of growth at 10 µM [13]: 21%; inhibition of growth at 10 µM (SK-MEL-28): 13%; inhibition of growth at 10 µM (NCI-H322M): 5%; inhibition of growth at 10 µM [14]: 8%; inhibition of growth at 10 µM [15]: 5%; inhibition of growth at 10 µM [16]: 27%; inhibition of growth at 10 µM [17]: 34%; inhibition of growth at 10 µM [18]: 12%; inhibition of growth at 10 µM (ACHN): 0%; inhibition of growth at 10 µM (K562): 61%
COc1ccc(C(=O)N2c3ccccc3Sc3ccccc32)cc1F	64	45	100	90	96	66	45	45	100	83	50	82	49	85	70	95	100	84	82	48	inhibition of growth at 10 µM [11]: 89%; inhibition of growth at 10 µM (NCI-H522): 100%; inhibition of growth at 10 µM (MDA-MB-231): 69%; inhibition of growth at 10 µM [12]: 50%; inhibition of growth at 10 µM [13]: 64%; inhibition of growth at 10 µM (SK-MEL-28): 57%; inhibition (Ovis aries): 99%; inhibition of growth at 10 µM [14]: 50%; inhibition of growth at 10 µM [15]: 44%; inhibition of growth at 10 µM [16]: 80%; inhibition of growth at 10 µM [17]: 100%; inhibition of growth at 10 µM [18]: 57%; inhibition of growth at 10 µM (ACHN): 50%; inhibition of growth at 10 µM (M14): 92%; inhibition of growth at 10 µM (T47D): 49%; inhibition of growth at 10 µM (K562): 82%
